{"source": "the NIST ThermoML archive (doi:10.1016/j.jct.2014.07.019)", "test": "xn = mol fraction of the nth substance listed", "details": "100 kPa, Liquid; for speed of sound: Frequency=3 MHz, Sing-around technique in a fixed-path interferometer; for mass density: Vibrating tube method", "note": "± gives the expanded uncertainty stated by the source."}
{"smiles": "CCCCOCC(C)O", "note": "(stereo not given) [1-butoxy-2-propanol] + CCCO", "values": [{"measurement": "speed of sound", "setting": "293.15 K, x1 = 0.0573", "result": "1230.8 ± 1.3", "unit": "m/s"}, {"measurement": "speed of sound", "setting": "293.15 K, x1 = 0.1001", "result": "1235.7 ± 1.3", "unit": "m/s"}, {"measurement": "speed of sound", "setting": "293.15 K, x1 = 0.1558", "result": "1241.5 ± 1.3", "unit": "m/s"}, {"measurement": "speed of sound", "setting": "293.15 K, x1 = 0.2031", "result": "1246.3 ± 1.3", "unit": "m/s"}, {"measurement": "speed of sound", "setting": "293.15 K, x1 = 0.2532", "result": "1250.7 ± 1.3", "unit": "m/s"}, {"measurement": "speed of sound", "setting": "293.15 K, x1 = 0.3033", "result": "1254.6 ± 1.3", "unit": "m/s"}, {"measurement": "speed of sound", "setting": "293.15 K, x1 = 0.4046", "result": "1261.2 ± 1.3", "unit": "m/s"}, {"measurement": "speed of sound", "setting": "293.15 K, x1 = 0.5048", "result": "1266.3 ± 1.3", "unit": "m/s"}, {"measurement": "speed of sound", "setting": "293.15 K, x1 = 0.6055", "result": "1270.3 ± 1.3", "unit": "m/s"}, {"measurement": "speed of sound", "setting": "293.15 K, x1 = 0.7052", "result": "1273.2 ± 1.3", "unit": "m/s"}, {"measurement": "speed of sound", "setting": "293.15 K, x1 = 0.807", "result": "1275.7 ± 1.3", "unit": "m/s"}, {"measurement": "speed of sound", "setting": "293.15 K, x1 = 0.8546", "result": "1276.8 ± 1.3", "unit": "m/s"}, {"measurement": "speed of sound", "setting": "293.15 K, x1 = 0.9041", "result": "1277.7 ± 1.3", "unit": "m/s"}, {"measurement": "speed of sound", "setting": "293.15 K, x1 = 0.9537", "result": "1278.5 ± 1.3", "unit": "m/s"}, {"measurement": "speed of sound", "setting": "293.15 K, x1 = 1", "result": "1279 ± 1.3", "unit": "m/s"}, {"measurement": "mass density", "setting": "293.15 K, x1 = 0.0573", "result": "812.915 ± 0.16", "unit": "kg/m3"}, {"measurement": "mass density", "setting": "293.15 K, x1 = 0.1001", "result": "818.814 ± 0.16", "unit": "kg/m3"}, {"measurement": "mass density", "setting": "293.15 K, x1 = 0.1558", "result": "825.901 ± 0.16", "unit": "kg/m3"}, {"measurement": "mass density", "setting": "293.15 K, x1 = 0.2031", "result": "831.228 ± 0.16", "unit": "kg/m3"}, {"measurement": "mass density", "setting": "293.15 K, x1 = 0.2532", "result": "836.415 ± 0.16", "unit": "kg/m3"}, {"measurement": "mass density", "setting": "293.15 K, x1 = 0.3033", "result": "841.124 ± 0.15", "unit": "kg/m3"}, {"measurement": "mass density", "setting": "293.15 K, x1 = 0.4046", "result": "849.477 ± 0.15", "unit": "kg/m3"}, {"measurement": "mass density", "setting": "293.15 K, x1 = 0.5048", "result": "856.464 ± 0.15", "unit": "kg/m3"}, {"measurement": "mass density", "setting": "293.15 K, x1 = 0.6055", "result": "862.441 ± 0.15", "unit": "kg/m3"}, {"measurement": "mass density", "setting": "293.15 K, x1 = 0.7052", "result": "867.521 ± 0.15", "unit": "kg/m3"}, {"measurement": "mass density", "setting": "293.15 K, x1 = 0.807", "result": "872.037 ± 0.15", "unit": "kg/m3"}, {"measurement": "mass density", "setting": "293.15 K, x1 = 0.8546", "result": "873.936 ± 0.15", "unit": "kg/m3"}, {"measurement": "mass density", "setting": "293.15 K, x1 = 0.9041", "result": "875.766 ± 0.15", "unit": "kg/m3"}, {"measurement": "mass density", "setting": "293.15 K, x1 = 0.9537", "result": "877.527 ± 0.15", "unit": "kg/m3"}, {"measurement": "mass density", "setting": "293.15 K, x1 = 1", "result": "879.031 ± 0.15", "unit": "kg/m3"}, {"measurement": "speed of sound", "setting": "298.15 K, x1 = 0.0573", "result": "1213.8 ± 1.3", "unit": "m/s"}, {"measurement": "speed of sound", "setting": "298.15 K, x1 = 0.1001", "result": "1218.8 ± 1.3", "unit": "m/s"}, {"measurement": "speed of sound", "setting": "298.15 K, x1 = 0.1558", "result": "1224.8 ± 1.3", "unit": "m/s"}, {"measurement": "speed of sound", "setting": "298.15 K, x1 = 0.2031", "result": "1229.3 ± 1.3", "unit": "m/s"}, {"measurement": "speed of sound", "setting": "298.15 K, x1 = 0.2532", "result": "1233.6 ± 1.3", "unit": "m/s"}, {"measurement": "speed of sound", "setting": "298.15 K, x1 = 0.3033", "result": "1237.5 ± 1.3", "unit": "m/s"}, {"measurement": "speed of sound", "setting": "298.15 K, x1 = 0.4046", "result": "1243.9 ± 1.3", "unit": "m/s"}, {"measurement": "speed of sound", "setting": "298.15 K, x1 = 0.5048", "result": "1248.9 ± 1.3", "unit": "m/s"}, {"measurement": "speed of sound", "setting": "298.15 K, x1 = 0.6055", "result": "1252.9 ± 1.3", "unit": "m/s"}, {"measurement": "speed of sound", "setting": "298.15 K, x1 = 0.7052", "result": "1255.7 ± 1.3", "unit": "m/s"}, {"measurement": "speed of sound", "setting": "298.15 K, x1 = 0.807", "result": "1258.3 ± 1.3", "unit": "m/s"}, {"measurement": "speed of sound", "setting": "298.15 K, x1 = 0.8546", "result": "1259.3 ± 1.3", "unit": "m/s"}, {"measurement": "speed of sound", "setting": "298.15 K, x1 = 0.9041", "result": "1260.2 ± 1.3", "unit": "m/s"}, {"measurement": "speed of sound", "setting": "298.15 K, x1 = 0.9537", "result": "1260.8 ± 1.3", "unit": "m/s"}, {"measurement": "speed of sound", "setting": "298.15 K, x1 = 1", "result": "1260.9 ± 1.3", "unit": "m/s"}, {"measurement": "mass density", "setting": "298.15 K, x1 = 0.0573", "result": "808.937 ± 0.16", "unit": "kg/m3"}, {"measurement": "mass density", "setting": "298.15 K, x1 = 0.1001", "result": "814.76 ± 0.16", "unit": "kg/m3"}, {"measurement": "mass density", "setting": "298.15 K, x1 = 0.1558", "result": "821.803 ± 0.16", "unit": "kg/m3"}, {"measurement": "mass density", "setting": "298.15 K, x1 = 0.2031", "result": "827.109 ± 0.16", "unit": "kg/m3"}, {"measurement": "mass density", "setting": "298.15 K, x1 = 0.2532", "result": "832.273 ± 0.16", "unit": "kg/m3"}, {"measurement": "mass density", "setting": "298.15 K, x1 = 0.3033", "result": "836.955 ± 0.16", "unit": "kg/m3"}, {"measurement": "mass density", "setting": "298.15 K, x1 = 0.4046", "result": "845.264 ± 0.15", "unit": "kg/m3"}, {"measurement": "mass density", "setting": "298.15 K, x1 = 0.5048", "result": "852.232 ± 0.15", "unit": "kg/m3"}, {"measurement": "mass density", "setting": "298.15 K, x1 = 0.6055", "result": "858.152 ± 0.15", "unit": "kg/m3"}, {"measurement": "mass density", "setting": "298.15 K, x1 = 0.7052", "result": "863.197 ± 0.15", "unit": "kg/m3"}, {"measurement": "mass density", "setting": "298.15 K, x1 = 0.807", "result": "867.684 ± 0.15", "unit": "kg/m3"}, {"measurement": "mass density", "setting": "298.15 K, x1 = 0.8546", "result": "869.566 ± 0.15", "unit": "kg/m3"}, {"measurement": "mass density", "setting": "298.15 K, x1 = 0.9041", "result": "871.424 ± 0.15", "unit": "kg/m3"}, {"measurement": "mass density", "setting": "298.15 K, x1 = 0.9537", "result": "873.128 ± 0.15", "unit": "kg/m3"}, {"measurement": "mass density", "setting": "298.15 K, x1 = 1", "result": "874.632 ± 0.15", "unit": "kg/m3"}, {"measurement": "speed of sound", "setting": "303.15 K, x1 = 0.0573", "result": "1197.1 ± 1.2", "unit": "m/s"}, {"measurement": "speed of sound", "setting": "303.15 K, x1 = 0.1001", "result": "1202 ± 1.3", "unit": "m/s"}, {"measurement": "speed of sound", "setting": "303.15 K, x1 = 0.1558", "result": "1208 ± 1.3", "unit": "m/s"}, {"measurement": "speed of sound", "setting": "303.15 K, x1 = 0.2031", "result": "1212.5 ± 1.3", "unit": "m/s"}, {"measurement": "speed of sound", "setting": "303.15 K, x1 = 0.2532", "result": "1216.8 ± 1.3", "unit": "m/s"}, {"measurement": "speed of sound", "setting": "303.15 K, x1 = 0.3033", "result": "1220.5 ± 1.3", "unit": "m/s"}, {"measurement": "speed of sound", "setting": "303.15 K, x1 = 0.4046", "result": "1226.8 ± 1.3", "unit": "m/s"}, {"measurement": "speed of sound", "setting": "303.15 K, x1 = 0.5048", "result": "1231.7 ± 1.3", "unit": "m/s"}, {"measurement": "speed of sound", "setting": "303.15 K, x1 = 0.6055", "result": "1235.6 ± 1.3", "unit": "m/s"}, {"measurement": "speed of sound", "setting": "303.15 K, x1 = 0.7052", "result": "1238.4 ± 1.3", "unit": "m/s"}, {"measurement": "speed of sound", "setting": "303.15 K, x1 = 0.807", "result": "1240.8 ± 1.3", "unit": "m/s"}, {"measurement": "speed of sound", "setting": "303.15 K, x1 = 0.8546", "result": "1241.8 ± 1.3", "unit": "m/s"}, {"measurement": "speed of sound", "setting": "303.15 K, x1 = 0.9041", "result": "1242.6 ± 1.3", "unit": "m/s"}, {"measurement": "speed of sound", "setting": "303.15 K, x1 = 0.9537", "result": "1243.2 ± 1.3", "unit": "m/s"}, {"measurement": "speed of sound", "setting": "303.15 K, x1 = 1", "result": "1242.9 ± 1.3", "unit": "m/s"}]}
